Patent US8513274B2, “Ellipticine compounds for treating obesity” (Etzem, Inc., priority 2009, dated 2013)
Structures can show the parent of a compound that is named as a salt.

Test: Reduction of body weight with ellipticine hydrochloride in mice
Format: in vivo
Details: initial body weight 30 g, every weekday
Method: In order to determine the effect of ellipticine and ellipticine derivatives in reducing body weight, ellipticine hydrochloride was administered to mice every weekday for 4 weeks (30 days) and their body weights tracked. Ellipticine hydrochloride was solubilized in saline and administered via intraperitoneal injection. Animals were weighed weekly.
Mice (6 per group) were divided into seven groups and given one of the following treatments: • 1. 10 mg ellipticine hydrochloride/kg body weight (Low) • 2. 20 mg ellipticine hydrochloride/kg body weight (Mid) • 3. 30 mg ellipticine hydrochloride/kg body weight (High) • 4. Saline • 5. 3 mg/kg body weight (Positive control 2) • 6. 5 mg/kg body weight (Positive control low) • 7. 10 mg/kg body weight (Positive control high)

For Cc1c2ccncc2c(C)c2c1[nH]c1ccccc12 [ellipticine hydrochloride], the “body weight loss (decrease of body weight)” value (10 mg/kg (Low) intraperitoneal in saline, end of 4 weeks) was “more than 18%”, the body weight loss (20 mg/kg (Mid) intraperitoneal in saline, end of week 3, animals then sacrificed) was “more than 33%” and the “reduction in body weight” value (30 mg/kg (High) intraperitoneal in saline, end of week 2, animals then sacrificed) was 28%.
